Assay: Stability of cannabinoid compounds and Vitamin E components in Beverage 2 (AB Red) by LCMSMS
Format: physicochemical
Description: The stability of the plant-derived cannabinoid compounds and Vitamin E components of the beverage stored 8° C. and at room temperature (21-25° C.) were monitored, over a period of 570 days via Liquid Chromatography-tandem Mass Spectrometry [LCMSMS, AGilent 6590, C18, 3×50 mm, 2.7 m (Agilent InfinityLab Poroshell 120 EC-C18), Electrospray Ionization detector]. The LCMSMS was calibrated for 0-50 ng/ml cannabinoids with the same resin material used in the preparation of the concentrates. At each time period, 100 ml of beverage was diluted with 10 ml of methanol and injected into the LCMSMS for analysis.

CCCCCc1cc(O)c2c(c1)OC(C)(C)[C@@H]1CCC(C)=C[C@@H]21 [D9 THC, delta-9-tetrahydrocannabinol, reference compound]
12.3 µg/mL: Stability of Plant-Derived Cannabinoid Compounds in AB Red (stored at 8° C., 210 days) | Stability of Plant-Derived Cannabinoid Compounds in AB Red (stored at 21-25° C., 510 days)
12.7 µg/mL: Stability of Plant-Derived Cannabinoid Compounds in AB Red (stored at 8° C., 3 days) | Stability of Plant-Derived Cannabinoid Compounds in AB Red (stored at 8° C., 9 days) | Stability of Plant-Derived Cannabinoid Compounds in AB Red (stored at 8° C., 16 days) | Stability of Plant-Derived Cannabinoid Compounds in AB Red (stored at 8° C., 19 days) | Stability of Plant-Derived Cannabinoid Compounds in AB Red (stored at 8° C., 22 days) | Stability of Plant-Derived Cannabinoid Compounds in AB Red (stored at 8° C., 26 days) | Stability of Plant-Derived Cannabinoid Compounds in AB Red (stored at 8° C., 29 days) | Stability of Plant-Derived Cannabinoid Compounds in AB Red (stored at 8° C., 330 days) | Stability of Plant-Derived Cannabinoid Compounds in AB Red (stored at 21-25° C., 8 days) | Stability of Plant-Derived Cannabinoid Compounds in AB Red (stored at 21-25° C., 15 days) | Stability of Plant-Derived Cannabinoid Compounds in AB Red (stored at 21-25° C., 29 days)
12.8 µg/mL: Stability of Plant-Derived Cannabinoid Compounds in AB Red (stored at 8° C., 10 days) | Stability of Plant-Derived Cannabinoid Compounds in AB Red (stored at 8° C., 11 days) | Stability of Plant-Derived Cannabinoid Compounds in AB Red (stored at 8° C., 18 days) | Stability of Plant-Derived Cannabinoid Compounds in AB Red (stored at 8° C., 150 days) | Stability of Plant-Derived Cannabinoid Compounds in AB Red (stored at 21-25° C., 9 days) | Stability of Plant-Derived Cannabinoid Compounds in AB Red (stored at 21-25° C., 18 days) | Stability of Plant-Derived Cannabinoid Compounds in AB Red (stored at 21-25° C., 19 days) | Stability of Plant-Derived Cannabinoid Compounds in AB Red (stored at 21-25° C., 90 days) | Stability of Plant-Derived Cannabinoid Compounds in AB Red (stored at 21-25° C., 180 days)
11.9 µg/mL: Stability of Plant-Derived Cannabinoid Compounds in AB Red (stored at 8° C., 540 days)
12.5 µg/mL: Stability of Plant-Derived Cannabinoid Compounds in AB Red (stored at 8° C., 60 days) | Stability of Plant-Derived Cannabinoid Compounds in AB Red (stored at 8° C., 360 days) | Stability of Plant-Derived Cannabinoid Compounds in AB Red (stored at 21-25° C., 10 days) | Stability of Plant-Derived Cannabinoid Compounds in AB Red (stored at 21-25° C., 24 days) | Stability of Plant-Derived Cannabinoid Compounds in AB Red (stored at 21-25° C., 25 days) | Stability of Plant-Derived Cannabinoid Compounds in AB Red (stored at 21-25° C., 240 days) | Stability of Plant-Derived Cannabinoid Compounds in AB Red (stored at 21-25° C., 270 days)
12.1 µg/mL: Stability of Plant-Derived Cannabinoid Compounds in AB Red (stored at 21-25° C., 330 days) | Stability of Plant-Derived Cannabinoid Compounds in AB Red (stored at 21-25° C., 390 days)
12.6 µg/mL: Stability of Plant-Derived Cannabinoid Compounds in AB Red (stored at 8° C., 8 days) | Stability of Plant-Derived Cannabinoid Compounds in AB Red (stored at 8° C., 17 days) | Stability of Plant-Derived Cannabinoid Compounds in AB Red (stored at 8° C., 180 days) | Stability of Plant-Derived Cannabinoid Compounds in AB Red (stored at 8° C., 270 days) | Stability of Plant-Derived Cannabinoid Compounds in AB Red (stored at 21-25° C., 3 days) | Stability of Plant-Derived Cannabinoid Compounds in AB Red (stored at 21-25° C., 360 days)
12.2 µg/mL: Stability of Plant-Derived Cannabinoid Compounds in AB Red (stored at 8° C., 480 days) | Stability of Plant-Derived Cannabinoid Compounds in AB Red (stored at 21-25° C., 60 days) | Stability of Plant-Derived Cannabinoid Compounds in AB Red (stored at 21-25° C., 420 days) | Stability of Plant-Derived Cannabinoid Compounds in AB Red (stored at 21-25° C., 450 days) | Stability of Plant-Derived Cannabinoid Compounds in AB Red (stored at 21-25° C., 540 days)
12.0 µg/mL: Stability of Plant-Derived Cannabinoid Compounds in AB Red (stored at 8° C., 510 days)
11.8 µg/mL: Stability of Plant-Derived Cannabinoid Compounds in AB Red (stored at 8° C., 570 days) | Stability of Plant-Derived Cannabinoid Compounds in AB Red (stored at 21-25° C., 480 days) | Stability of Plant-Derived Cannabinoid Compounds in AB Red (stored at 21-25° C., 570 days)
high degree of stability: stability over the entire period (in words) (AB Red stored at 8° C., 570 days) | stability over the entire period (in words) (AB Red stored at 21-25° C., 570 days)
12.4 µg/mL: Stability of Plant-Derived Cannabinoid Compounds in AB Red (stored at 8° C., 120 days) | Stability of Plant-Derived Cannabinoid Compounds in AB Red (stored at 8° C., 240 days) | Stability of Plant-Derived Cannabinoid Compounds in AB Red (stored at 8° C., 300 days) | Stability of Plant-Derived Cannabinoid Compounds in AB Red (stored at 8° C., 390 days) | Stability of Plant-Derived Cannabinoid Compounds in AB Red (stored at 8° C., 420 days) | Stability of Plant-Derived Cannabinoid Compounds in AB Red (stored at 8° C., 450 days) | Stability of Plant-Derived Cannabinoid Compounds in AB Red (stored at 21-25° C., 5 days) | Stability of Plant-Derived Cannabinoid Compounds in AB Red (stored at 21-25° C., 16 days) | Stability of Plant-Derived Cannabinoid Compounds in AB Red (stored at 21-25° C., 26 days) | Stability of Plant-Derived Cannabinoid Compounds in AB Red (stored at 21-25° C., 30 days) | Stability of Plant-Derived Cannabinoid Compounds in AB Red (stored at 21-25° C., 120 days) | Stability of Plant-Derived Cannabinoid Compounds in AB Red (stored at 21-25° C., 150 days) | Stability of Plant-Derived Cannabinoid Compounds in AB Red (stored at 21-25° C., 210 days) | Stability of Plant-Derived Cannabinoid Compounds in AB Red (stored at 21-25° C., 300 days)
13.0 µg/mL: Stability of Plant-Derived Cannabinoid Compounds in AB Red (stored at 8° C., 1 days) | Stability of Plant-Derived Cannabinoid Compounds in AB Red (stored at 8° C., 2 days) | Stability of Plant-Derived Cannabinoid Compounds in AB Red (stored at 8° C., 5 days) | Stability of Plant-Derived Cannabinoid Compounds in AB Red (stored at 8° C., 90 days) | Stability of Plant-Derived Cannabinoid Compounds in AB Red (stored at 21-25° C., 1 days) | Stability of Plant-Derived Cannabinoid Compounds in AB Red (stored at 21-25° C., 2 days) | Stability of Plant-Derived Cannabinoid Compounds in AB Red (stored at 21-25° C., 12 days)
12.9 µg/mL: Stability of Plant-Derived Cannabinoid Compounds in AB Red (stored at 8° C., 0 days) | Stability of Plant-Derived Cannabinoid Compounds in AB Red (stored at 8° C., 12 days) | Stability of Plant-Derived Cannabinoid Compounds in AB Red (stored at 8° C., 15 days) | Stability of Plant-Derived Cannabinoid Compounds in AB Red (stored at 8° C., 23 days) | Stability of Plant-Derived Cannabinoid Compounds in AB Red (stored at 8° C., 24 days) | Stability of Plant-Derived Cannabinoid Compounds in AB Red (stored at 8° C., 25 days) | Stability of Plant-Derived Cannabinoid Compounds in AB Red (stored at 8° C., 30 days) | Stability of Plant-Derived Cannabinoid Compounds in AB Red (stored at 21-25° C., 0 days) | Stability of Plant-Derived Cannabinoid Compounds in AB Red (stored at 21-25° C., 11 days) | Stability of Plant-Derived Cannabinoid Compounds in AB Red (stored at 21-25° C., 17 days) | Stability of Plant-Derived Cannabinoid Compounds in AB Red (stored at 21-25° C., 22 days) | Stability of Plant-Derived Cannabinoid Compounds in AB Red (stored at 21-25° C., 23 days)
